# Laboratory results from patent publication US12011439B2, “Combination therapy using C—C chemokine receptor 4 (CCR4) antagonists and one or more immune checkpoint inhibitors” (CHEMOCENTRYX, INC., priority 2018, dated 2024).
# Columns and labels:
# Type in all cases: cell-based
# Duffy = target: T1, Duffy (Homo sapiens, UniProt Q16570); assay: Compound 1 selectivity panel, buffer IC50; settings: Receptor Duffy
# T1 sequence (Q16570 1-336): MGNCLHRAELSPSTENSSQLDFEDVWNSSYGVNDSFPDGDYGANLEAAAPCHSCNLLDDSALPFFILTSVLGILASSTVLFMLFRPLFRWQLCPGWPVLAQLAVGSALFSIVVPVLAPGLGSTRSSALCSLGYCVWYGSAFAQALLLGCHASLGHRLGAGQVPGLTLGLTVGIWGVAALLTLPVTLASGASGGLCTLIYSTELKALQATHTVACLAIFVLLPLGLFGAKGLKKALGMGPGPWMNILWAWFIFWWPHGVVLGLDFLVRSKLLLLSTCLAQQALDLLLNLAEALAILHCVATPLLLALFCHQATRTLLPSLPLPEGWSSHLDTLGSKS
# Experimental: (§1) The selectivity of Compound 1 was tested by determining the IC50 value against a diverse panel of receptors, enzymes, and ion channels. […] See, Table 1.
# CXCR6 = CXCR6 (Homo sapiens, UniProt O00574); assay: Compound 1 selectivity panel, buffer IC50; settings: Receptor CXCR6
# Experimental: as §1
# CXCR3 = target: T2, CXCR3 (Homo sapiens, UniProt P49682); assay: Compound 1 selectivity panel, buffer IC50; settings: Receptor CXCR3
# T2 sequence (P49682 1-368): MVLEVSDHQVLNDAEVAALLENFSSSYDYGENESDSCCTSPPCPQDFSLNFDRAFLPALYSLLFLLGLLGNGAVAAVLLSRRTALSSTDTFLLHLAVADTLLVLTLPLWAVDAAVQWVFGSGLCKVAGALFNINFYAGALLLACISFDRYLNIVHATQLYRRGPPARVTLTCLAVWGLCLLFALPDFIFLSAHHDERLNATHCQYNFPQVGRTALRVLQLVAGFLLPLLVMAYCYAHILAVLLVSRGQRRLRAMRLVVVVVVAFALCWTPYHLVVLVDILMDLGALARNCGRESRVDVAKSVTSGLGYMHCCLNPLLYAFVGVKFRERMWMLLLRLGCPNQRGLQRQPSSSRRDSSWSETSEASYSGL
# Experimental: as §1
# [1] = Compound 1 selectivity panel, buffer IC50; settings: Receptor CCR12
# Experimental: as §1
# CCR4 = target: T3, CCR4 (Homo sapiens, UniProt P51679); assay: Compound 1 selectivity panel, buffer IC50
# T3 sequence (P51679 1-360): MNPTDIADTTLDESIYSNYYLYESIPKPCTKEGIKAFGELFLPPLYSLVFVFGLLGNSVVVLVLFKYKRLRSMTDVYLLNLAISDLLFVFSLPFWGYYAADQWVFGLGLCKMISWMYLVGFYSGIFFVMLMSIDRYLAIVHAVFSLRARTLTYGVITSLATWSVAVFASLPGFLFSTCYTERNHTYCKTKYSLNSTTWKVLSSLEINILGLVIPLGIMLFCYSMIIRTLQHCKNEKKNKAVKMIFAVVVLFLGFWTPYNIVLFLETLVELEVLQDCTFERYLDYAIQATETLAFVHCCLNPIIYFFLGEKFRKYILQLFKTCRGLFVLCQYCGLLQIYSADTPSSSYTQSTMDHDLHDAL
# Experimental: as §1
# CXCR7 = CXCR7 (Homo sapiens, UniProt P25106); assay: Compound 1 selectivity panel, buffer IC50; settings: Receptor CXCR7
# Experimental: as §1
# CXCR1 = target: T4, CXCR1 (Homo sapiens, UniProt P25024); assay: Compound 1 selectivity panel, buffer IC50; settings: Receptor CXCR1
# T4 sequence (P25024 1-350): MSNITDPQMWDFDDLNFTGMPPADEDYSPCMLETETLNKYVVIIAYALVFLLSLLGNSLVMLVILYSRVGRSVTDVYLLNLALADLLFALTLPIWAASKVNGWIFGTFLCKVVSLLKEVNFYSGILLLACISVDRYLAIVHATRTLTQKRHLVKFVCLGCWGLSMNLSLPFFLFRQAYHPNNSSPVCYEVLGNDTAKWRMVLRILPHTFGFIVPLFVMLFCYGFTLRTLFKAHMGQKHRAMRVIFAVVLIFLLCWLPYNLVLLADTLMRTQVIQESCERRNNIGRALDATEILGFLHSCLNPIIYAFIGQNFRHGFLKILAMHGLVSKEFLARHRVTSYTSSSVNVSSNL
# Experimental: as §1
# CCR10 = target: T5, CCR10 (Homo sapiens, UniProt P46092); assay: Compound 1 selectivity panel, buffer IC50; settings: Receptor CCR10
# T5 sequence (P46092 1-362): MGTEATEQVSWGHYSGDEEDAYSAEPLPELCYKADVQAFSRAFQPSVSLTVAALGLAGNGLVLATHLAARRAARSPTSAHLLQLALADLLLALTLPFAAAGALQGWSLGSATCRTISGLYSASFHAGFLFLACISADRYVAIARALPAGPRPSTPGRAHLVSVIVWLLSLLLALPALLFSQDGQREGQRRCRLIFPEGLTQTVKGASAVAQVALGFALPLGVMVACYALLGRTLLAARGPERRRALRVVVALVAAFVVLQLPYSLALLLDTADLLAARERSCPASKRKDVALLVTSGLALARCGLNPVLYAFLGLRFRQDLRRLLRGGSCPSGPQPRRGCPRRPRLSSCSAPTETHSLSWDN
# Experimental: as §1
# CXCR2 = target: T6, CXCR2 (Homo sapiens, UniProt P25025); assay: Compound 1 selectivity panel, buffer IC50; settings: Receptor CXCR2
# T6 sequence (P25025 1-360): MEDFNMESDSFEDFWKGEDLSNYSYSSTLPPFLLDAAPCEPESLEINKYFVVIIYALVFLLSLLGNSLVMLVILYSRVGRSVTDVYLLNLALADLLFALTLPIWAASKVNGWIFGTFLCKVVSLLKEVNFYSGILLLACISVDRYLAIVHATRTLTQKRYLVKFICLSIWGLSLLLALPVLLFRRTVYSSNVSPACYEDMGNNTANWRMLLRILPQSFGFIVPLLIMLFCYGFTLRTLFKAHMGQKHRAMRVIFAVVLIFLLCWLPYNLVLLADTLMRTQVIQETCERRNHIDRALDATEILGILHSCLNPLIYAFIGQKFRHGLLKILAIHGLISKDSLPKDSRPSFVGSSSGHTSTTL
# Experimental: as §1
# CCR1 = target: T7, CCR1 (Homo sapiens, UniProt P32246); assay: Compound 1 selectivity panel, buffer IC50; settings: Receptor CCR1
# T7 sequence (P32246 1-355): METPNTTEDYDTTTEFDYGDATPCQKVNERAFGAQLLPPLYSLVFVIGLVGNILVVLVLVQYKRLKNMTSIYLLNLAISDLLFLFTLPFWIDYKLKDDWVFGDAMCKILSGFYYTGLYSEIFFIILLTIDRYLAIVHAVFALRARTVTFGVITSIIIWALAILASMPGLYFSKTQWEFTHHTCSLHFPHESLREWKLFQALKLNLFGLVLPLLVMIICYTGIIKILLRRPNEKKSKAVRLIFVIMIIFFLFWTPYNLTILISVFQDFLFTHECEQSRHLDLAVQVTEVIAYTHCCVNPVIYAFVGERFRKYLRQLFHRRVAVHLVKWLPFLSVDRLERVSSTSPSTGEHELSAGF
# Experimental: as §1
# Chain of CXCR6 (O00574 whole entry, species assumed): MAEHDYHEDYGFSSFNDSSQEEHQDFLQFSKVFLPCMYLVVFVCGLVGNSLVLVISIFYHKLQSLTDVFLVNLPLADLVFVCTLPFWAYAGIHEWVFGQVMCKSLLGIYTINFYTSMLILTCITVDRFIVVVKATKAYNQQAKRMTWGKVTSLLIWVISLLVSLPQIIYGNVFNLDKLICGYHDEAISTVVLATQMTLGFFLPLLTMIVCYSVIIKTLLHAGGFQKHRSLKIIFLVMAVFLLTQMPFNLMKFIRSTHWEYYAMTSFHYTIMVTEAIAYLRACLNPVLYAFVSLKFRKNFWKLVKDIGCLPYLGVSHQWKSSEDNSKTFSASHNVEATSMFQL
# Chain of CXCR7 (P25106 whole entry, species assumed): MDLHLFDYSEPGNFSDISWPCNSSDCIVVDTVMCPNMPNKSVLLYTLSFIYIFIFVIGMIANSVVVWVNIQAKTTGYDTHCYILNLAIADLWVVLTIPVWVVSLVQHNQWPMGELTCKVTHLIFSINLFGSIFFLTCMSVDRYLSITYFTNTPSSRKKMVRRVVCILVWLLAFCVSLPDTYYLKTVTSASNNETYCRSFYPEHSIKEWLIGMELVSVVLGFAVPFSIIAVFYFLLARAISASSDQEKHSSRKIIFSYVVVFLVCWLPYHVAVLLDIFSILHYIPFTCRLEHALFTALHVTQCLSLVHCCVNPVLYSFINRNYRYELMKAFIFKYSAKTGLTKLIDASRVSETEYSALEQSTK
smiles,measurement,setting,value
C[C@@H](Nc1cc(C2CCN([C@H]3CCCN(CCC(=O)O)C3)CC2)ccc1Cl)c1ccc(Cl)cc1Cl [Compound 1],IC50,Duffy,> 10 µM
same,IC50,CXCR6,> 10 µM
same,IC50,CXCR3,> 10 µM
same,IC50,[1],> 10 µM
same,IC50,"CCR4; Receptor CCR4, buffer",2 nM
same,"Selectivity against a diverse panel of receptors, enzymes, and ion channels",CCR4; in words,highly specific for CCR4
same,IC50,CXCR7,> 10 µM
same,IC50,CXCR1,> 10 µM
same,IC50,CCR10,> 10 µM
same,IC50,CXCR2,> 10 µM
same,IC50,CCR1,> 10 µM
